Source: US7429607B2, “5-HT2B receptor antagonists” (Asterand UK Limited, priority 2002, dated 2008)

Experiments:
[1] = molecular target: T1, human cloned 5-HT2B receptors (Homo sapiens, UniProt P41595); assay: Human cloned 5-HT2B receptor binding assay ([3H]LSD, CHO-K1 membranes); details: displacement of [3H]LSD (1 nM), read-out: 5-HT2B pKi (converted)
T1 construct: expressed in transfected cells; host or cells: CHO-K1 cells
Description: The binding affinity of the compounds for human cloned 5-HT2B receptors was determined using the following assay.
CHO-K1 cells expressing cloned 5-HT2B receptor were maintained in Ultra-CHO medium containing 400 μg/ml of G418, 100 U/ml penicillin, 100 μg/ml streptomycin, 2.5 μg/ml fungizone and 1% foetal bovine serum, in 95/5% O2/CO2 at 37° C. The cells were harvested using 0.25% trypsin and were centrifuged at 800 rpm for 8 minutes. The cells were homogenised in 50 mM HEPES buffer containing 1 mM disodium EDTA and 1 mM PMSF at pH 7.4, using a Dounce homogeniser (20 strokes). The homogenate was centrifuged at 2280 rpm (1000 g) and 4° C. for 10 minutes, after which the supernatant was removed by decanting. The pellet was re-homogenised as above, and the resulting supernatant removed and combined with that already obtained. The supernatant solution was then centrifuged at 18300 rpm (40000 g) for 10 minutes at 4° C. using a Sorvall centrifuge. The supernatant was removed, and the pellet was re-suspended in 50 mM buffer at pH 7.4 using a Ultra-turrax T25 Polytron, before centrifugation again at 40000 g as above. This wash procedure was repeated, after which the membrane preparation was stored at a concentration of 1 mg/ml at −80° C. until use.
The membranes were thawed rapidly and diluted in assay buffer containing Tris-HCl (50 mM, pH 7.4), ascorbic acid (0.1%) and calcium chloride (4 mM). The membranes were homogenised to resuspend them, prior to adding 10 or 15 μg of membranes to assay wells containing [^3H]LSD (1 nM), assay buffer (50 mM Tris, 4 mM calcium chloride and 0.1% ascorbic acid) containing pargyline (10 μM), and the test compounds (1×10^−10 to 1×10^−4M). Non specific binding was determined in the presence of 100 μM 5-HT. After 30 minutes incubation at 37° C., the assay mixture was filtered through a combination of GF-C and GF-B filters, pre-soaked in 1% polyethyleneimine, using a Brandel cell harvester, and were washed three times using 50 mM Tris-HCl. Radioactivity retained on the filters was determined by liquid scintillation counting. For each test compound, the concentration that inhibited binding of [3H]LSD by 50% was determined using curve fitting software (Prism). Kd values (concentration of LSD required to occupy 50% of the receptor binding sites at equilibrium) determined from saturation binding studies were then used to calculate inhibition dissociation constants (Ki) using the following equation: […]
This approach follows that set out in Kenakin, T.P. Pharmacologic analysis of drug-receptor interaction. Raven Press, New York, 2nd Edition.

[2] = molecular target: T2, cloned human 5-HT2A receptor (Homo sapiens, UniProt P28223); assay: Human 5-HT2A receptor binding assay ([3H]ketanserin, CHO-K1 membranes); details: displacement of [3H]ketanserin (1 nM), read-out: 5-HT2A pKi (converted)
T2 construct: purchased Euroscreen; host or cells: CHO-K1 cells
T2 sequence (P28223 whole entry): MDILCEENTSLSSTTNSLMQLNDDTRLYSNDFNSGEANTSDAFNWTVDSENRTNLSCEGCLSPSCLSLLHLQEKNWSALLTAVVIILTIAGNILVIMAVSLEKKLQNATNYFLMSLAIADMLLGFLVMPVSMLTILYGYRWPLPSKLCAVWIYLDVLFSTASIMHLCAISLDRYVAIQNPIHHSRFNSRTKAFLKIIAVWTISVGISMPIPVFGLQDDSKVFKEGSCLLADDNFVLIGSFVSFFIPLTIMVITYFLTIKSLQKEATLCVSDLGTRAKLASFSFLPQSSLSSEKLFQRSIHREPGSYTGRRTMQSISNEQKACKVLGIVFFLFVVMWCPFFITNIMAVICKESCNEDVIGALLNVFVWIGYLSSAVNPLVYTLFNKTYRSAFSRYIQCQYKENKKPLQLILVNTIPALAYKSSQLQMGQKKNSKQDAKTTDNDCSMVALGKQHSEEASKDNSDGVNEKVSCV
Description: (§1) The binding affinity of ligands for human 5-HT2A and 5-HT2C receptors was determined using the following assay.
Membrane preparations from CHO-K1 cells expressing the cloned human 5-HT2A receptor were obtained (Euroscreen). The membranes were thawed rapidly and diluted in assay buffer containing Tris-HCl (50 mM, pH 7.7). The membranes were resuspended by homogenisation, prior to adding 15 μg of membranes to assay wells containing [3H] ketanserin (1 nM), assay buffer (50 mM Tris at pH 7.4) containing pargyline (10 μM), and test compounds (1×10^−10 to 1×10^−4M). Non specific binding was determined in the presence of 100 μM mianserin. After 15 minutes incubation at 37° C., the assay mixture was filtered through a combination of GF-C and GF-B filters, pre-soaked in 0.05% Brij, using a Brandel cell harvester, and were washed three times using ice cold Tris-HCl buffer (50 mM). Radioactivity retained on the filters was determined by liquid scintillation counting. For each test compound, the concentration that inhibited binding of [^3H]ketanserin by 50% was determined using curve fitting software (Prism). Kd values (concentration of ketanserin required to occupy 50% of the receptor binding sites at equlibrium) determined from saturation binding studies were then used to calculate inhibition dissociation constants (Ki) using the following equation: […]

[3] = molecular target: T3, cloned human 5-HT2C receptor (Homo sapiens, UniProt P28335); assay: Human 5-HT2C receptor binding assay ([3H]mesulergine, CHO-K1 membranes); details: displacement of [3H]mesulergine (1 nM), read-out: 5-HT2C pKi (converted)
T3 construct: purchased Euroscreen; host or cells: CHO-K1 cells
T3 sequence (P28335 33-458): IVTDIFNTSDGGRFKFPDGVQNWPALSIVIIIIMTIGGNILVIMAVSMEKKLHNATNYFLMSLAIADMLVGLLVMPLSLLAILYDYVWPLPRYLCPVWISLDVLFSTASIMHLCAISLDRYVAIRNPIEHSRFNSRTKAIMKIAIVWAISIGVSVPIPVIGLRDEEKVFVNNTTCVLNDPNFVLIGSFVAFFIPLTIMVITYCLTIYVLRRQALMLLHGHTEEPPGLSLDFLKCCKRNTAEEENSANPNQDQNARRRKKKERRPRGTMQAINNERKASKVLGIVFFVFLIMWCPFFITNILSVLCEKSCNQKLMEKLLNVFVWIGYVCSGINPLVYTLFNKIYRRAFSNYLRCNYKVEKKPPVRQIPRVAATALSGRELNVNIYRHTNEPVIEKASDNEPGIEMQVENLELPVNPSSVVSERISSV
Description: as §1
Membrane preparations from CHO-K1 cells expressing the cloned human 5-HT2C receptor were obtained (Euroscreen). The membranes were thawed rapidly and diluted in assay buffer containing Tris-HCl (50 mM, pH 7.7), ascorbic acid (0.1%) and pargyline (10 μM). The membranes were resuspended by homogenisation, prior to adding 6 μg of membranes to assay wells containing [^3H] mesulergine (1 nM), assay buffer (50 mM Tris at pH 7.7 and 0.1% ascorbic acid) containing pargyline (10 μM), and test compounds (1×10^−10 to 1×10^−4M). Non specific binding was determined in the presence of 100 μM mianserin. After 30 minutes incubation at 37° C., the assay mixture was filtered through a combination of GF-C and GF-B filters, pre-soaked in 1% bovine serum albumin, using a Brandel cell harvester, and were washed three times using ice cold Tris-HCl buffer (50 mM). Radioactivity retained on the filters was determined by liquid scintillation counting. For each test compound, the concentration that inhibited binding of [3H]mesulergine by 50% was determined using curve fitting software (Prism). Kd values (concentration of mesulergine required to occupy 50% of the receptor binding sites at equlibrium) determined from saturation binding studies were then used to calculate inhibition dissociation constants (Ki) using the following equation: […]

T1 sequence (P41595 whole entry): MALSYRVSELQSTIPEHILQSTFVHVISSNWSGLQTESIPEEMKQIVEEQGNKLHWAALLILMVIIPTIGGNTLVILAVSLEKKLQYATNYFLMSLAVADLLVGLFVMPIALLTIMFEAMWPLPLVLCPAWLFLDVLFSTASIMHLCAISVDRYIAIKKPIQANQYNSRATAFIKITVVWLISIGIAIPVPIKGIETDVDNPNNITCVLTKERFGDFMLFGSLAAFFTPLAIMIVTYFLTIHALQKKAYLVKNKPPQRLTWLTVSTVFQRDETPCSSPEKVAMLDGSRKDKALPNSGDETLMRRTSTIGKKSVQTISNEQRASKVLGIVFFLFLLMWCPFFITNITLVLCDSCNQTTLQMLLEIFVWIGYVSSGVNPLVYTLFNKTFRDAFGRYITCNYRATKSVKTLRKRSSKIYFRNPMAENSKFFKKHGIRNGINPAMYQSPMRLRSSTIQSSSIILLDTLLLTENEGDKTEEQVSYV

Compound | Ki [1] | Ki [2] | Ki [3]
COc1ccc2ccccc2c1-c1coc(N)n1 [Compound 17, 4-(2-methoxy-naphthalen-1-yl)-oxazol-2-ylamine] | < 0.01 µM | > 1 µM | > 0.1 µM
Nc1nc(-c2cccc3ccccc23)co1 [Compound 1, 2-amino-4-(naphth-1-yl)oxazole] | < 0.1 µM | > 10 µM | > 1 µM
Cc1ccc2ccccc2c1-c1coc(N)n1 [Compound 6, 2-amino-4-(2′-methylnaphth-1-yl)oxazole] | < 0.01 µM | > 1 µM | > 1 µM
CC(C)c1nc(N)oc1-c1cccc2ccccc12 [Compound 7, 2-amino-4-isopropyl-5-(naphth-1-yl)oxazole] | < 0.01 µM | > 0.1 µM | > 1 µM
CC(C)c1nc(N)oc1-c1ccc(F)c2ccccc12 [Compound 31, 2-amino-5-(4′-fluoronaphth-1-yl)-4-isopropyloxazole] | < 0.01 µM | > 1 µM | > 1 µM
